Calls of active or inactive are those of the source. The rule behind the calls is not given here. Where a SMILES comes first, the peptide text is derived from it.
How the values were obtained:
Aorta [1] = test: Inhibition of drug-induced vasorelaxation in rat aorta precontracted with norepinephrine in presence of nitric oxide synthase inhibitor L-NAME; assay type: functional, tissue-based
Aorta [2] = test: Vasorelaxation effect on norepinephrine-induced contractions in rat endothelium-denuded aorta; assay type: functional, tissue-based
Aorta [3] = test: Vasorelaxation effect on norepinephrine-induced contractions in rat aorta with endothelium at 100 uM; assay type: functional; design: scale not given: the % may be the effect or the level left
Aorta [4] = test: Vasorelaxation effect on norepinephrine-induced contractions in rat aorta with endothelium at 0.1 uM; assay type: functional; design: scale not given: the % may be the effect or the level left

CC(C)C[C@@H]1NC(=O)[C@H](Cc2ccc(O)cc2)NC(=O)CNC(=O)[C@H](CO)NC(=O)[C@@H]2CCCN2C(=O)[C@@H]2CCCN2C(=O)[C@H](CC(C)C)NC1=O [CYCONATSUDAMINE A] (cyclo(GYLLPPS))
Activity (Aorta [1]): Active | Activity (Aorta [2]): inactive | Activity (Aorta [3]): 80% | Activity (Aorta [4]): 40%

— ChEMBL document CHEMBL1139783, “Cyclonatsudamine A, a new vasodilator cyclic peptide from Citrus natsudaidai” (2007)
